Broadly, the TD50 is the dose at which the toxic effect under study appears in half of the subjects. Low values mean harm at a small dose, high ones harm only at a large dose. In general, ED50 refers to the dose that gives a 50% effect, or the effect in half of the subjects. A low value points to greater potency.

Consider four compounds from ChEMBL document CHEMBL1141099, “Discovery of N-(2,6-dimethylphenyl)-substituted semicarbazones as anticonvulsants: hybrid pharmacophore-based design” (2005).

The source made the active and inactive calls. The rule behind the calls is not given here.

The subject of assay [1] is Mus musculus. The assay can be described thus: Post treatment activity score for CNS study using a actophotometer at a dose of 100 mg/Kg after 1 hr when given i.p., in mice (No. of animals 6); Control (24h before) 201.
In assay [2] the test system is Rattus norvegicus. The assay can be described thus: Number of rats protected at a dose of 30 mg/Kg when given oral at 0.25 hr upon maximal electroshock seizure; Total number of rats = 4. The assay is classed as functional. In general terms: The maximal electroshock test induces tonic seizures with an electrical stimulus.
For assay [3], the system named is Mus musculus. Put plainly: Minimum dose required for anticonvulsant activity when given i.p., at 4 hr in mice upon maximal electroshock seizure. Type of assay: functional.
The subject of assay [4] is Rattus norvegicus. The assay can be described thus: Number of rats protected at a dose of 30 mg/Kg when given oral at 2 hr upon maximal electroshock seizure; Total number of rats = 4. The assay is classed as functional.
Assay [5] relates to Rattus norvegicus. The assay can be described thus: Number of rats protected at a dose of 30 mg/Kg when given oral at 4 hr upon maximal electroshock seizure; Total number of rats = 4. Type of assay: functional.
The subject of assay [6] is Rattus norvegicus. The assay can be described thus: Number of rats protected at a dose of 30 mg/Kg when given oral at 1 hr upon maximal electroshock seizure; Total number of rats = 4. The assay is classed as functional.
For assay [7], the system named is Mus musculus. The assay can be described thus: Minimum dose required for anticonvulsant activity when given i.p., at 2 hr in mice upon subcutaneous strychnine seizure. The assay is classed as functional.
Assay [8] has as its system Mus musculus. Put plainly: Minimum dose required for anticonvulsant activity when given i.p., at 0.5 hr in mice upon maximal electroshock seizure. Type of assay: functional.
Assay [9] relates to Rattus norvegicus. The assay can be described thus: Number of rats protected at a dose of 30 mg/Kg when given oral at 0.5 hr upon maximal electroshock seizure; Total number of rats = 4. The assay is classed as functional.
For assay [10], the system named is Mus musculus. Put plainly: Post treatment activity score for CNS study using a actophotometer at a dose of 100 mg/Kg after 0.5 hr when given i.p., in mice (No. of animals 6); Control (24h before) 201.
In assay [11] the test system is Mus musculus. The assay can be described thus: Minimum dose required for anticonvulsant activity when given i.p., at 0.5 hr in mice upon neurotoxicity seizure using rotarod test. Type of assay: functional.
Assay [12] concerns Mus musculus. The assay can be described thus: Minimum dose required for anticonvulsant activity when given i.p., at 0.5 hr in mice upon subcutaneous strychnine seizure. The assay is classed as functional.
For assay [13], the system named is Mus musculus. The assay can be described thus: Minimum dose required for anticonvulsant activity when given i.p., in mice upon neurotoxicity seizure using rotarod test. On the technique in general: Falling from the rotarod earlier than controls is read as motor impairment.
The subject of assay [14] is Rattus norvegicus. The assay can be described thus: Toxic dose observed for anticonvulsant activity when given orally at 2 hr in rat upon neurotoxicity seizure. The assay is classed as functional. As to conditions: po.
The test system of assay [15] is Rattus norvegicus. The assay can be described thus: Enzymatic activity to assess the increase in level of SGOT at a dose of 30 mg/Kg for 14 days when given p.o., in 6 rats; Control 73.1. Type of assay: functional.
In assay [16] the test system is Rattus norvegicus. The assay can be described thus: Toxic dose observed for anticonvulsant activity when given i.p., at 2 hr in rat upon neurotoxicity seizure. The assay is classed as functional. The conditions noted are these: ip.
The subject of assay [17] is Mus musculus. Put plainly: Post treatment activity score for CNS study using a actophotometer at a dose of 100 mg/Kg after 0.5 hr when given i.p., in mice (No. of animals 6); Control (24h before) 247.
The test system of assay [18] is Rattus norvegicus. The assay can be described thus: Minimum dose required for anticonvulsant activity when given i.p., at 0.5 hr in mice upon subcutaneous pentylenetetrazole seizure; Absence of activity. As to conditions: Mus musculus. Type of assay: functional, organism-based.
Assay [19] deals with Rattus norvegicus. The assay can be described thus: Effective dose required for anticonvulsant activity when given i.p., at 2 hr in rat upon maximal electroshock seizure. The assay is classed as functional. The conditions noted are these: ip.
Assay [20] has as its system Rattus norvegicus. The assay can be described thus: Minimum dose required for anticonvulsant activity when given i.p., in mice upon subcutaneous picrotoxin seizure; Absence of activity. The assay is classed as functional, organism-based. The conditions noted are these: Mus musculus.
Assay [21] relates to Rattus norvegicus. Put plainly: Minimum dose required for anticonvulsant activity when given i.p., at 2 hr in mice upon subcutaneous strychnine seizure; Absence of activity. The assay is classed as functional, organism-based. As to conditions: Mus musculus.
In assay [22] the test system is Rattus norvegicus. Put plainly: Enzymatic activity to assess the increase in level of SGPT at a dose of 30 mg/Kg for 14 days when given p.o., in 6 rats; Control 45.0. Type of assay: functional.
In assay [23] the test system is Mus musculus. Put plainly: Post treatment activity score for CNS study using a actophotometer at a dose of 100 mg/Kg after 1 hr when given i.p., in mice (No. of animals 6); Control (24h before) 247.
Assay [24] has as its system Rattus norvegicus. The assay can be described thus: Number of rats protected at a dose of 30 mg/Kg when given oral at 0.25 hr upon maximal electroshock seizure; Total number of rats = 4; Absence of activity. The assay is classed as functional, organism-based.
Assay [25] relates to Rattus norvegicus. The assay can be described thus: Number of rats protected at a dose of 30 mg/Kg when given oral at 2 hr upon maximal electroshock seizure; Total number of rats = 4; Absence of activity. The assay is classed as functional, organism-based.
The test system of assay [26] is Rattus norvegicus. Put plainly: Number of rats protected at a dose of 30 mg/Kg when given oral at 1 hr upon maximal electroshock seizure; Total number of rats = 4; Absence of activity. Type of assay: functional, organism-based.
For assay [27], the system named is Mus musculus. Put plainly: Post treatment immobility time for CNS study using Porsolt's swimpool test at a dose of 100 mg/Kg after 1 hr when given i.p., in mice (No. of animals 6); Control (24h before) 131.
The subject of assay [28] is Rattus norvegicus. Put plainly: Number of rats protected at a dose of 30 mg/Kg when given oral at 4 hr upon maximal electroshock seizure; Total number of rats = 4; Absence of activity. The assay is classed as functional, organism-based.
The subject of assay [29] is Rattus norvegicus. The assay can be described thus: Number of rats protected at a dose of 30 mg/Kg when given oral at 0.5 hr upon maximal electroshock seizure; Total number of rats = 4; Absence of activity. The assay is classed as functional, organism-based.
Assay [30] concerns Mus musculus. Put plainly: Minimum dose required for anticonvulsant activity when given i.p., at 0.5 hr in mice upon subcutaneous pentylenetetrazole seizure. The assay is classed as functional.
For assay [31], the system named is Mus musculus. The assay can be described thus: Post treatment activity score for CNS study using a actophotometer at a dose of 100 mg/Kg after 0.5 hr when given i.p., in mice (No. of animals 6); Control (24h before) 372.
Assay [32] has as its system Mus musculus. The assay can be described thus: Post treatment activity score for CNS study using a actophotometer at a dose of 100 mg/Kg after 1 h when given i.p., in mice (No. of animals 6); Control (24h before) 372.

Take `Cc1cccc(C)c1NC(=O)/N=N/c1c(O)[nH]c2ccc(Br)cc12`: the Activity in [1] was found to be 176; in [2], 1; in [4] it was 2; in assay [5], 0; in assay [6], 0; in assay [9] it was 1. The same compound returned an Activity in assay [10] of 172. In addition, the figures for the MES in assay [3] and in assay [8] were 300 mg/kg and 100 mg/kg, respectively. Moreover, the results for the STY seizure in [7] and in [12] were 100 mg/kg and 30 mg/kg, respectively. In addition, the NT in assay [11] came out at 300 mg/kg.

Turning to `O=C1NC(=O)C(c2ccccc2)(c2ccccc2)N1` [PHENYTOIN], the Activity is on record as 1 in assay [2]; 104 in [17]; 3 in [4]; 3 in [5]; 3 in assay [6]; 4 in assay [9]. The same compound showed an Activity in assay [23] of 106. Further, the NT in [13] and in [11] was 100 mg/kg in each case. For the same compound, the TD50 is more than 500 mg/kg in [14] and 42.8 mg/kg in [16]. This compound returned an SGOT activity in [15] of 84.1 units/mL. Further, the MES in [3] and in assay [8] was 30 mg/kg throughout. The PTZ seizure result in assay [18] is “inactive”. The compound further displayed an ED50 in [19] of 6.48 mg/kg. Moreover, in assay [20], the PIC seizure result was “inactive”. Further, the STY seizure result in assay [21] is “inactive”. The SGPT activity in assay [22] is on record as 52.6 units/mL.

With `NC(=O)N1c2ccccc2C=Cc2ccccc21` [CARBAMAZEPINE], the result in assay [24], in assay [25], in assay [26], in [28] and in assay [29] was inactive. Further, the MES in assay [3] stood at 100 mg/kg; in assay [8] it was 30 mg/kg. The same compound had an Activity in assay [27] of 207. Moreover, the STY seizure result in assay [21] was “inactive”. In [11], this compound gave an NT of 100 mg/kg. This compound also yielded a PTZ seizure in assay [30] of 100 mg/kg.

Take `Cc1ccc2[nH]c(O)c(/N=N/C(=O)Nc3c(C)cccc3C)c2c1`: the Activity in [2] was found to be 1; in assay [31], 355; in assay [32] it was 368; in [4] it was 3; in assay [5] it was 3; in assay [6] it was 3. Moreover, the Activity in assay [9] is 1. Further, the MES in assay [3] was found to be 300 mg/kg; in assay [8], 100 mg/kg. For the same compound, the STY seizure in assay [7] came out at 100 mg/kg; in [12] it was 30 mg/kg. This compound also yielded an NT in assay [11] of 300 mg/kg. In [30], this compound returned a PTZ seizure of 300 mg/kg.
